Tests used:
[1] = system: 5′ promoter of DCLK1 gene (L-DCLK1 expression); assay: RT-PCR expression of L/S DCLK1 in HCT-116 cells before or after 5-Aza-Cytidine; format: cell-based, human; details: FIG. 12B
From the text: FIG. 12 (A) Methylation of CpG sites in 5′-promoter of DCLK1-gene in cell lines/human samples; NC=normal colon; CRC=colorectal cancer. (B) Expression of L/S DCLK1 in HCT-116 cells before (−) or after (+) treatment with 5-Aza-Cytidine by RT-PCR.
Recent reports have confirmed DNA methylation of 5′ promoter of DCLK1 gene in CRCs (Vedeld et al. Epigenetics 2014, 9(3).30). Thus, DNA methylation of 5′ promoter leads to epigenetic silencing and loss of L expression in cancer cells/tumors.

[2] = system: DCLK1 positive cancer cells (CSCs); assay: In vitro relapse assay (spheroid re-growth from cancer stem cells); format: cell-based
From the text: In certain embodiments an expression vector can be used to provide an inhibitory RNA to a cell in vitro or in vivo. […] Thus accumulating evidence from literature and from our laboratory strongly supports a critical role of DCLK1 in cancer stem cell biology.

[3] = system: COL3A1 promoter; assay: Promoter activity of COL3A1 constructs in HCT116 cells; format: cell-based, human; details: C-Luciferase reporter, FIG. 14
From the text: FIG. 14 HTS Bioassay: (A) RT-PCR analysis of COL3A1 in ShC and ShD clones (5′upstream nucleotide sequence of COL3A1 gene is provided in SEQ ID NO:10). (B) The map of the promoter constructs fused to secretable Cypridina Luciferase (C-Luciferase). (C) The flow diagram of the method used to measure the promoter activity of COL3A1 constructs in HCT116 cells. (D) The promoter activity of COL3A1 constructs in HCT116 cells.
The inventors developed bioassays for […] (HTS), using promoter-reporter constructs of genes identified as being down stream of DCLK1-S, but not DCLK1-L (FIG. 15). As an example of the bioassays developed, the inventors generated promoter-reporter constructs of COL3A1 gene in pCLuc-BASIC-2 vector, based on published sequence of the Col3A1 gene (FIG. 14A-14C) and transiently transfected ShC/ShD clones of HCT-116 cells, as per protocol shown in FIG. 14D. […] Data obtained from the HTS assays with the specific bioassays will help identify specific molecules from available chemical libraries, which will then allow the development of safe and effective drugs for inhibiting tumorigenic/metastatic potential of cancer stem cells, while sparing the functions of normal stem cells in intestinal crypts, as a non-toxic treatment strategy for colorectal/pancreatic cancers, and other cancers as well, which are found to be dependent on the expression of DCLK1-S.

Compound | expression of L-DCLK1 [1] | relapse/re-growth of spheroids [2] | promoter activity of COL3A1 constructs [3]
Nc1ncn([C@@H]2O[C@H](CO)[C@@H](O)[C@H]2O)c(=O)n1 [5 aza cytidine] | re-expression of L-DCLK1 |  | 
COc1cc(/C=C/C(=O)CC(=O)/C=C/c2ccc(O)c(OC)c2)ccc1O [curcumin] |  | underwent autophagic survival and re-grew (relapse) as spheroids | 
shRNA: DCLK1 targeting shRNA; shrna sequence ATCGTTCTGTTATTGTAGC in pGZIP Lentiviral vector (ShD clones) (pGZIP lentiviral vector) |  | eliminated relapse/re-growth of spheroids | loss of promoter activity
